Reference: US8846699B2, “Quinazoline derivatives as a multiplex inhibitor and method for the preparation thereof” (Hanmi Pharm. Co., Ltd., priority 2005, dated 2014)

What was measured:
VEGFR2 (KDR) = VEGFR2 (KDR) (Homo sapiens (Human), UniProt P35968); assay: VEGFR2 (KDR) enzyme assay, fluorescence polarization; format: biochemical; details: 5 μM ATP, poly(Glu, Tyr) substrate
Outline: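 Buffer: 20 mM HEPES pH 7.4 with 5 mM MgCl2, 2 mM MnCl2 and 50 μM Na3VO4. Compound (0.0001–10 μM) was premixed 10 min with VEGFR2 (200 ng/10 μl), then poly(Glu,Tyr) substrate (10 ng/ml) and 5 μM ATP were added for 1 h at room temperature. EDTA-quenched samples were read by FP after 30 min with antibody and tracer.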

[1] = system: Human Umbilical Vein Endothelial Cell (HUVEC); assay: Inhibitory effect on growth of human umbilical vein endothelial cell (HUVEC), MTS; format: cell-based; details: 10 ng/ml VEGF, absorbance 490 nm
EGFR1 (HER-1) = EGFR1 (HER-1) (Homo sapiens (Human), UniProt P00533); assay: EGFR1 (HER-1) enzyme assay, fluorescence polarization; format: biochemical; details: 100 μM ATP, poly(Glu, Tyr) substrate
[2] = system: colon and rectal cancer cell line, SW-620; assay: Inhibitory effect on growth of cancer cell line SW-620, SRB; format: cell-based; details: not having overexpressed EGFR and EGFR2
Outline: (§1)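 Growth inhibition was measured by sulforhodamine-B staining (absorbance 570 nm) of TCA-fixed cells after 72 h compound exposure at 37 °C, 5% CO2. Test concentrations ran from 10 μM in 10-fold steps to 10^−4, with DMSO below 1%, in 10% FBS DMEM.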

[3] = system: skin cancer cell line, A431; assay: Inhibitory effect on growth of cancer cell line A431, SRB; format: cell-based; details: overexpressed EGFR1 (HER-1)
Outline: as §1

[4] = system: breast cancer cell line, SK-Br3; assay: Inhibitory effect on growth of cancer cell line SK-Br3, SRB; format: cell-based; details: overexpressed EGFR2 (HER-2)
Outline: as §1

Chain of VEGFR2 (KDR) (P35968 20-1356): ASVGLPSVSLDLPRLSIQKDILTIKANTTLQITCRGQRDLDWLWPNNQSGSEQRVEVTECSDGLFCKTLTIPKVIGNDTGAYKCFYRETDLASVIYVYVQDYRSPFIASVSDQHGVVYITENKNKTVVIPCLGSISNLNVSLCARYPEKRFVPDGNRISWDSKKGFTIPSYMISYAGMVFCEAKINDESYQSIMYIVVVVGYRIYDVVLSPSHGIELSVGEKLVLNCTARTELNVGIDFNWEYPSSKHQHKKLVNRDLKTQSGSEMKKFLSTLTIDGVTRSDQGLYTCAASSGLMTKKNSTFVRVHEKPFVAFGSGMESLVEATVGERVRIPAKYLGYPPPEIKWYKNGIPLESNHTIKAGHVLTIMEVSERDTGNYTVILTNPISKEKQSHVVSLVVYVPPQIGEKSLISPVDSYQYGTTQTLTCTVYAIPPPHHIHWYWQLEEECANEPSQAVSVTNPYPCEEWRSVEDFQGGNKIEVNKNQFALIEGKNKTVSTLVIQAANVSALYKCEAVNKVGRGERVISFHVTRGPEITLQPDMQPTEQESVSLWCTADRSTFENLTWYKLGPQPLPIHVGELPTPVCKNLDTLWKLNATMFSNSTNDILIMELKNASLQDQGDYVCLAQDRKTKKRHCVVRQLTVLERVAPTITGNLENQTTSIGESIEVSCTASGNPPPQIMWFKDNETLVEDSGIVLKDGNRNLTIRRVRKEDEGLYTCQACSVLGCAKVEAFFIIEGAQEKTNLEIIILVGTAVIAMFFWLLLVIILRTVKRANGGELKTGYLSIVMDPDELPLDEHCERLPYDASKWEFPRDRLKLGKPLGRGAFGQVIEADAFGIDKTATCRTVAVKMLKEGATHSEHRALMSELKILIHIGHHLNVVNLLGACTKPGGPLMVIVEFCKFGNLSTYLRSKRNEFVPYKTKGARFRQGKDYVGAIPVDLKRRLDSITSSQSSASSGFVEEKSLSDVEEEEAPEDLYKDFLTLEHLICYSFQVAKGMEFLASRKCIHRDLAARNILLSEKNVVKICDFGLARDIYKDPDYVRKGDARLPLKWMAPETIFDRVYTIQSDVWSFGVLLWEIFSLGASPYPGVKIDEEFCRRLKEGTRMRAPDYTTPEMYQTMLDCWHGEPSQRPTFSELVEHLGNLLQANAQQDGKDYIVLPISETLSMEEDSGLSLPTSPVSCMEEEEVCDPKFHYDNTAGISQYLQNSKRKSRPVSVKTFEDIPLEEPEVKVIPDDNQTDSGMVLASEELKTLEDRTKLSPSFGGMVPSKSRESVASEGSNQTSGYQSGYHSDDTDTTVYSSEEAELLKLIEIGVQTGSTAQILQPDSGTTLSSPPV

Compound	IC50 (VEGFR2 (KDR))	IC50 ([1]; Homo sapiens, 96 h)	IC50 (EGFR1 (HER-1))	IC50 ([2]; Homo sapiens, 72 h)	IC50 ([3]; Homo sapiens, A-431, 72 h)	IC50 ([4]; Homo sapiens, SK-BR-3, 72 h)	IC50 ([1]; 96 hours)	IC50 ([2]; 72 hours)	IC50 ([3]; 72 hours)	IC50 ([4]; 72 hours)
C=CC(=O)Nc1cc2c(Nc3ccc(Br)cc3F)ncnc2cc1OCCNC(=O)C(C)N (stereo not drawn) [Example 173, N-[7-[2-(2-amino-propionylamino)-ethoxy]-4-(4-bromo-2-fluoro-phenylamino)-quinazolin-6-yl]-acrylamide]	165 nM	213 nM	18 nM	10000 nM	38 nM	504 nM	–	–	–	–
N-{2-[6-acryloylamino-4-(4-bromo-2,3-difluoro-phenylamino)-quinazolin-7-oxy]-ethyl}-4-dimethylamino-butylamide [Example 127]	958 nM	–	568 nM	–	–	–	676 nM	6510 nM	698 nM	1020 nM
N-{2-[6-acryloylamino-4-(4-bromo-2-fluoro-phenylamino)-quinazolin-7-yloxy]-ethyl}-3-dimethylamino-butylamide [Example 75]	658 nM	–	325 nM	–	–	–	690 nM	2660 nM	452 nM	658 nM
N-{2-[6-acryloylamino-4-(4-bromo-2-fluoro-phenylamino)-quinazolin-7-yloxy]-ethyl}-4-dimethylamino-butylamide [Example 66]	125 nM	–	21 nM	–	–	–	238 nM	10000 nM	11 nM	103 nM
N-{2-[6-acryloylamino-4-(4-bromo-2-fluoro-phenylamino)-quinazolin-7-yloxy]-ethyl}-butylamide [Example 51]	954 nM	–	32 nM	–	–	–	987 nM	10000 nM	33 nM	194 nM
N-{2-[6-acryloylamino-4-(4-bromo-2-fluoro-phenylamino)-quinazolin-7-yloxy]-ethyl}-malonic acid [Example 70]	279 nM	–	956 nM	–	–	–	365 nM	9570 nM	973 nM	10000 nM
N-{2-[6-acryloylamino-4-(4-bromo-3-chloro-2-fluoro-phenylamino)-quinazolin-7-yloxy]-ethyl}-4-dimethylamino-butylamide [Example 148]	206 nM	–	28 nM	–	–	–	348 nM	2320 nM	30 nM	40 nM
